Measured values: patent publication US6858620B2, “Condensed pyridoindole derivatives” (Lilly ICOS, LLC, priority 2000, dated 2005)

Tests used:
human recombinant PDE5 = target: T1, human recombinant PDE5 (Homo sapiens, UniProt O76074); experiment: Inhibitory effect on cGMP-PDE (PDE5 IC50, one-step assay); format: biochemical; conditions: in vitro, 0.15 μM 8-[H3]-cGMP, 30 minutes incubation
T1 construct: host or cells: Saccharomyces cerevisiae strain BJ2-54 (ATCC 74465), described as an exemplary method
Protocol: The compounds of structural formula (I) were tested for an ability to inhibit PDE5. The ability of a compound to inhibit PDE5 activity is related to the IC50 value for the compound, i.e., the concentration of inhibitor required for 50% inhibition of enzyme activity. The IC50 value for compounds of structural formula (I) were determined using recombinant human PDE5.
cGMP-PDE activity of compounds of the present invention was measured using a one-step assay adapted from Wells et al., Biochim. Biophys. Acta, 384, 430 (1975). The reaction medium contained 50 mM Tris-HCl, pH 7.5, 5 mM magnesium acetate, 250 μg/ml 5′-Nucleotidase, 1 mM EGTA, and 0.15 μM 8-[H^3]-cGMP. Unless otherwise indicated, the enzyme used was a human recombinant PDE5 (ICOS Corp., Bothell, Wash.).
Compounds of the invention were dissolved in DMSO finally present at 2% in the assay.

SMILES: O=C1OCC2Cc3c([nH]c4ccccc34)C(c3ccc4c(c3)OCO4)N12 (centres unmarked) [Example 13, 10-Benzo[1,3]dioxol-5-yl-3a,4,9,10-tetrahydro-3H-2-oxa-9,10a-diazacyclopenta[b]fluoren-1-one]
- IC50 (human recombinant PDE5): 0.07 µM

SMILES: O=C1CC(=O)N2C1Cc1c([nH]c3ccccc13)C2c1ccc2c(c1)OCO2 (centres unmarked) [Example 9, 5-Benzo[1,3]dioxol-5-yl-5,6,11,11a-tetrahydroindolizino[6,7-b]indole-1,3-dione]
- IC50 (human recombinant PDE5): 0.2 µM

SMILES: O=C1OC(=S)N2[C@H](c3ccc4c(c3)OCO4)c3[nH]c4ccccc4c3C[C@H]12 [Example 3, (3aR,10R)-10-Benzo[1,3]dioxol-5-yl-1-thioxo3a,4,9,10-tetrahydro-2-oxa-9,10a-diaza-cyclopenta[β]fluoren-3-one]
- IC50 (human recombinant PDE5): 0.053 µM

SMILES: CCCCN1C(=O)[C@@H]2Cc3c([nH]c4ccccc34)[C@H](c3ccc(OC)cc3)N2C1=S (racemic) [Example 7, (+−, trans)-2-Butyl-10-(4-methoxyphenyl)-1-thioxo-1,2,3a,4,9,10-hexahydro-2,9,10a-triazacyclopenta-[b]fluoren-3-one]
- IC50 (human recombinant PDE5): 0.02 µM

SMILES: O=S1OCC2Cc3c([nH]c4ccccc34)C(c3ccc4c(c3)OCO4)N21 (centres unmarked) [Example 15, 10-Benzo[1,3]dioxol-5-yl-3a,4,9,10-tetrahydro-3H-2-oxa-1-thia-9,10a-diazacyclopenta[b]fluorene-1-oxide]
- IC50 (human recombinant PDE5): 0.02 µM

SMILES: CN1C[C@@H]2Cc3c([nH]c4ccccc34)[C@H](c3ccc4c(c3)OCO4)N2C1=O (racemic) [Example 11, (+−, cis)-10-Benzo[1,3]dioxol-5-yl-2-methyl-2,3,3a,4,9,10-hexahydro-2,9,10a-triazacyclopenta[b]fluoren-1-one]
- IC50 (human recombinant PDE5): 0.06 µM

SMILES: CN1C(=O)N2[C@H](c3ccc4c(c3)OCO4)c3[nH]c4ccccc4c3C[C@H]2C1=S [Example 5, (3aS,10R)-10-Benzo(1,3)dioxol-5-yl-2-methyl-3-thioxo-2,3,3a,4,9,10-hexahydro-2,9,10a-triazacyclopenta[b]fluoren-1-one]
- IC50 (human recombinant PDE5): 0.012 µM
- melting point: 168 to 174 °C

SMILES: O=C1CCN2[C@H](c3ccc4c(c3)OCO4)c3[nH]c4ccccc4c3C[C@H]12 (racemic) [Example 14, (+−, trans)-5-Benzo[1,3]dioxol-5-yl,2,3,5,6,11,11a-hexahydro-indolizino[6,7-b]indol-1-one]
- IC50 (human recombinant PDE5): 0.39 µM

SMILES: COc1ccc([C@@H]2c3[nH]c4ccccc4c3C[C@H]3C(=O)N(Cc4ccccc4)CN23)cc1 (racemic) [Example 12, (+−, cis)-2-Benzyl-10-(4-methoxyphenyl)-1,2,3a,4,9,10-hexahydro-2,9,10a-triazacyclopenta[b]fluoren-3-one]
- IC50 (human recombinant PDE5): 0.06 µM

SMILES: O=C1OC(=O)N2[C@H](c3ccc4c(c3)OCO4)c3[nH]c4ccccc4c3C[C@H]12 [Example 1, (3aR,10R)-(+)-10-Benzo[1,3]dioxol-5-yl-3a,4,9,10-tetrahydro-2-oxa-9,10a-diaza-cyclopenta[β]fluorene-1,3-dione]
- IC50 (human recombinant PDE5): 0.205 µM
- melting point: 197 to 202 °C

SMILES: CN1C(=O)[C@@H]2Cc3c([nH]c4ccccc34)[C@@H](c3ccc4c(c3)OCO4)N2C1=S [Example 6, (3aS,10R)-10-Benzo(1,3)dioxol-5-yl-2-methyl-1-thioxo-1,2,3a,4,9,10-hexahydro-2,9,10a-triazacyclopenta[b]fluoren-3-one]
- IC50 (human recombinant PDE5): 0.012 µM
- melting point: 234 to 236 °C
